Assay results taken from ChEMBL document CHEMBL4706557, “Synthesis and in vitro and in vivo biological evaluation of novel derivatives of flexicaulin A as antiproliferative agents” (Eur J Med Chem, 2020).
The source made the active and inactive calls. The rule behind the calls is not given here.

Legend:
ECa-109 cell line [1] = assay: Antitumor activity against human EC109 cells xenografted in BALB/c mouse assessed as reduction in tumor weight at 20 mg/kg, ip administered every day for 14 days; format: functional, organism-based; settings: time 14.0 day
MGC-803 = assay: Antiproliferative activity against human MGC-803 cells assessed as inhibition of cell growth incubated for 72 hrs by SRB assay; format: functional, cell-based; settings: MGC-803, 72 h
ECa-109 cell line [2] = assay: Antiproliferative activity against human EC109 cells assessed as reduction in survival rate after 24 to 72 hrs by SRB assay; format: functional, cell-based; settings: time 24-72 hrs
HUVEC = assay: Cytotoxicity against HUVEC assessed as inhibition of cell growth incubated for 72 hrs by SRB assay; format: cell-based; settings: Homo sapiens
ECa-109 [3] = assay: Inhibition of clone formation in human EC109 cells at 0.125 to 0.5 uM after 7 days by crystal violet staining based assay; format: functional, cell-based; settings: dose 0.125-0.5 µM, time 7.0 day
ECa-109 cell line [4] = assay: Induction of apoptosis in human EC-109 cells assessed as apoptotic rate at 1.5 uM after 24 hrs by Annexin V-FITC/propidium iodide staining based flow cytometry (reference value: 5.3 %); format: functional
ECa-109 cell line [5] = assay: Induction of apoptosis in human EC-109 cells assessed as apoptotic rate at 3 uM after 24 hrs by Annexin V-FITC/propidium iodide staining based flow cytometry (reference value: 5.3 %); format: functional
ECa-109 cell line [6] = assay: Induction of mitochondrial depolarization in human EC-109 cells assessed as depolarized cell population at 0.75 uM measured after 24 hrs by JC1 dye based flow cytometry (reference value: 4.2 %); format: functional
ECa-109 cell line [7] = assay: Induction of apoptosis in human EC109 cells assessed as increase in cleaved caspase 9 expression after 24 hrs by Western blot analysis; format: functional, cell-based
ECa-109 cell line [8] = assay: Induction of apoptosis in human EC109 cells assessed as reduction in Bcl-2 protein expression incubated for 24 hrs by Western blot analysis; format: functional, cell-based
ECa-109 cell line [9] = assay: Induction of apoptosis in human EC109 cells assessed as increase in BimEL expression after 24 hrs by Western blot analysis; format: functional, cell-based
ECa-109 cell line [10] = assay: Induction of apoptosis in human EC109 cells assessed as change in Bax expression at 0.75 to 3 uM after 24 hrs by Western blot analysis; format: functional, cell-based; settings: dose 0.75-3 µM
ECa-109 cell line [11] = assay: Induction of apoptosis in human EC109 cells assessed as increase in Bax/Bcl2 ratio at 0.75 to 3 uM after 24 hrs by Western blot analysis; format: functional, cell-based; settings: dose 0.75-3 µM
ECa-109 cell line [12] = assay: Induction of apoptosis in human EC109 cells assessed as increase in cytochrome C protein expression incubated for 24 hrs by Western blot analysis; format: functional, cell-based
ECa-109 cell line [13] = assay: Induction of apoptosis in human EC109 cells assessed as increase in intracellular ROS level at 1.5 to 3 uM incubated for 24 hrs by DCFH-DA staining based flow cytometry analysis; format: functional, cell-based; settings: dose 1.5-3 µM
ECa-109 cell line [14] = assay: Antiproliferative activity against human EC109 cells assessed as survival rate preincubated with N-acetylcysteine for 4 hrs followed by compound addition and measured after 24 hrs by SRB assay; format: functional
ECa-109 [15] = assay: Inhibition of clone formation in human EC109 cells at 0.5 uM after 7 days in presence of N-acetylcysteine by crystal violet staining based assay; format: functional, cell-based; settings: time 7.0 day
ECa-109 cell line [16] = assay: Induction of morphological changes in human EC109 cells assessed as decrease in number of cells; format: functional, cell-based
ECa-109 cell line [17] = assay: Induction of mitochondrial depolarization in human EC-109 cells assessed as depolarized cell population at 3 uM preincubated with N-acetylcysteine for 4 hrs followed by compound addition and measured after 24 hrs by JC1 dye based flow cytometry (reference value: 4.2 %); format: functional
ECa-109 cell line [18] = assay: Induction of apoptosis in human EC-109 cells assessed as apoptotic rate at 3 uM preincubated with N-acetylcysteine for 4 hrs followed by compound addition and measured after 48 hrs by Annexin V-FITC/propidium iodide staining based flow cytometry (reference value: 3.8 %); format: functional
ECa-109 cell line [19] = assay: Induction of apoptosis in human EC109 cells assessed as increase in cleaved caspase 9 expression at 3 uM incubated for 24 hrs in presence of N-acetylcysteine by Western blot analysis; format: functional, cell-based
ECa-109 cell line [20] = assay: Induction of apoptosis in human EC109 cells assessed as increase in cleaved caspase 3 expression at 3 uM incubated for 24 hrs in presence of N-acetylcysteine by Western blot analysis; format: functional, cell-based
ECa-109 cell line [21] = assay: Induction of apoptosis in human EC-109 cells xenografted in nude BALB/c mouse assessed as reduction in number of cells at 20 to 40 mg/kg, ip administered once daily for 14 days by H and E staining based histopathological analysis; format: functional, organism-based; settings: dose 20-40 mg/kg, time 14.0 day
ECa-109 cell line [22] = assay: Induction of apoptosis in human EC-109 cells xenografted in nude BALB/c mouse assessed as appearance of morphological changes at 20 to 40 mg/kg, ip administered once daily for 14 days by H and E staining based histopathological analysis; format: functional, organism-based; settings: dose 20-40 mg/kg, time 14.0 day
ECa-109 cell line [23] = assay: Induction of apoptosis in human EC-109 cells xenografted in BALB/c mouse assessed as decrease in Bcl-2 expression in tumor tissue at 20 to 40 mg/kg, ip QD for 14 days by Western blotting analysis relative to control; format: functional, organism-based; settings: dose 20-40 mg/kg, time 14.0 day
ECa-109 cell line [24] = assay: Induction of apoptosis in human EC-109 cells xenografted in BALB/c mouse assessed as change in Bax expression in tumor tissue at 20 mg/kg, ip QD for 14 days by Western blotting analysis relative to control; format: functional, organism-based; settings: time 14.0 day
ECa-109 cell line [25] = assay: Induction of apoptosis in human EC-109 cells xenografted in BALB/c mouse assessed as increase in cytochrome C in tumor tissue at 40 mg/kg, ip QD for 14 days by Western blotting analysis relative to control; format: functional, organism-based; settings: time 14.0 day
ECa-109 cell line [26] = assay: Induction of apoptosis in human EC-109 cells xenografted in BALB/c mouse assessed as increase in cleaved caspase 9 in tumor tissue at 40 mg/kg, ip QD for 14 days by Western blotting analysis relative to control; format: functional, organism-based; settings: time 14.0 day
[27] = Toxicity in BALB/c mouse assessed as HGB at 20 mg/kg, ip administered once daily for 14 days (reference value: 153.20 +/- 3.87 g/L); format: organism-based; settings: in vivo, 336 h, time 14 day
[28] = Toxicity in BALB/c mouse assessed as MCV at 20 mg/kg, ip administered once daily for 14 days (reference value: 49.90 +/- 0.37 fL); format: organism-based; settings: in vivo, 336 h, time 14 day
[29] = Toxicity in BALB/c mouse assessed as RDW at 40 mg/kg, ip administered once daily for 14 days (reference value: 14.18 +/- 0.26 %); format: organism-based; settings: in vivo, 336 h, time 14 day
[30] = Toxicity in BALB/c mouse assessed as PLT at 40 mg/kg, ip administered once daily for 14 days (reference value: 788.60 +/- 71.35 10^9/L); format: organism-based; settings: in vivo, 336 h, time 14 day
[31] = Toxicity in BALB/c mouse assessed as effect on creatinine content at 20 to 40 mg/kg, ip administered once daily for 14 days; format: organism-based; settings: in vivo, 336 h, dose 20-40 mg/kg, time 14 day
[32] = Toxicity in BALB/c mouse assessed as effect on uric acid content at 20 to 40 mg/kg, ip administered once daily for 14 days; format: organism-based; settings: in vivo, 336 h, dose 20-40 mg/kg, time 14 day

## C=C1C(=O)[C@@]23[C@H](O)C[C@@H]4C(C)(C)CCC[C@@]4(COC(C)=O)[C@@H]2[C@@H](O)C[C@H]1[C@H]3OC(=O)c1ccc(CCl)cc1
ECa-109 cell line [1]
  inhibition: Active
MGC-803
  IC50: 200 nM
ECa-109 cell line [2]
  inhibition: Dose-dependent effect
HUVEC
  IC50: 490 nM
ECa-109 [3]
  inhibition: Active
ECa-109 cell line [4]
  Activity: 28.2%
ECa-109 cell line [5]
  Activity: 45.4%
ECa-109 cell line [6]
  Activity: 26.3%
ECa-109 cell line [7]
  Activity: Dose-dependent effect
ECa-109 cell line [8]
  Activity: Dose-dependent effect
ECa-109 cell line [9]
  Activity: Dose-dependent effect
ECa-109 cell line [10]
  Activity: inactive
ECa-109 cell line [11]
  Activity: Active
ECa-109 cell line [12]
  Activity: Dose-dependent effect
ECa-109 cell line [13]
  Activity: Active
ECa-109 cell line [14]
  Activity: 90%
ECa-109 [15]
  inhibition: inactive
ECa-109 cell line [16]
  Activity: Active
ECa-109 cell line [17]
  Activity: 4%
ECa-109 cell line [18]
  Activity: 4.8%
ECa-109 cell line [19]
  Activity: inactive
ECa-109 cell line [20]
  Activity: inactive
ECa-109 cell line [21]
  Activity: Active
ECa-109 cell line [22]
  Activity: Active
ECa-109 cell line [23]
  Activity: Active
ECa-109 cell line [24]
  Activity: inactive
ECa-109 cell line [25]
  Activity: Active
ECa-109 cell line [26]
  Activity: Active
[27]
  Activity: 147 g/L
[28]
  Activity: 49.5 fL
[29]
  Activity: 14.73%
[30]
  Activity: 832.8 10^9/L
[31]
  Activity: Non-Toxic
[32]
  Activity: Non-Toxic
